Results reported in patent publication US6541515B2, “HIV integrase inhibitors” (Merck & Co., Inc., priority 2000, dated 2003).
pIC50: −log10 of the molar value.

Molecular target: recombinant integrase (HIV integrase) (Human immunodeficiency virus type 1 group M subtype B, UniProt P04585)
Experiment: HIV integrase assay: strand transfer catalyzed by recombinant integrase
Assay type: biochemical
Settings: strand transfer activity
Description: HIV Integrase Assay: Strand Transfer Catalyzed by Recombinant Integrase and Preintegration Complexes
Assays for the strand transfer activity of integrase can be conducted according to Wolfe et al., J. Virol. 1996, 70: 1424 and Farnet and Bushman, Cell 1997, 88: 483 for recombinant integrase and preintegration complexes, respectively, hereby incorporated by reference. Compound A was tested in the recombinant integrase assay and found to have an IC50 of about 20 micromolar.

## CCCCC(C)C1=C(O)C(=O)C2CC(C)CC(C(=O)O)C2C1(C)C(=O)CCO (stereo not shown) [Compound A]
  pIC50: ~4.70
